In patent US8962694B2, “Composition for pest control” (priority 2006, dated 2015):
Where “and” joins values, the source holds several entries; their conditions need not be identical. Equal values may be shown once.

Legend:
cane toads [1] = assay: Trial 1 two-step test: ethanol anaesthesia, then pesticidal agent applied to dorsal surface; assay type: in vivo, Bufo marinus
Protocol: Testing of the efficacy of various compositions for the purpose of cane toad extermination was conducted in two trials. The first trial comprised a “two-step” test in which subject toads were initially exposed to an anaesthetic agent and, once anaesthetised, exposed to a pesticidal agent (i.e. killing agent) in the presence of a suitable carrier. This two-step approach was undertaken to ensure the humane extermination of the animals.
Subject animals were therefore exposed to an approximate total dose of 3-4 ml of materials, comprising 2-3 gm of an anaesthetising agent (i.e. ethanol) and up to 1.0 ml of the particular pesticidal agent to be tested. A mist of ethanol was applied (“primary treatment”) to the dorsal surface of the toad from a hand-held spray bottle. When the toad was stupefied, as judged by the inability of the animal to right itself onto its ventral surface when turned onto its back (generally 10-15 minutes after treatment), the test pesticidal agent was administered (“secondary treatment”) onto the animal's dorsal surface by means of a micropipette. The test pesticidal agent included chloroxylenol (i.e. 4-chloro 3,5-dimethyl phenol) in different carriers including ethanol, isopropanol, propanol and dilute solutions thereof. Animals were monitored continuously for their response to the treatment.

cane toads [2] = assay: Trial 2 single spray application of test pesticidal compositions; assay type: in vivo, Bufo marinus
Source text: The tests conducted in the second trial involved a single spray application of various test pesticidal compositions on cane toads. A hand-operated spray bottle was used to deliver a single standard dose of 3.0-3.3 gm of the particular test pesticidal agent to the dorsal surface of each animal. Animals were subsequently continuously monitored for their response to the treatment.

cane toads [3] = tested on: cane toads
[4] = primary 100% ethanol 2.1-2.9 ml, secondary 5% chloroxylenol in 40% isopropanol/60% water, 1.0 ml, medium toads (90.0-139.9 gm)
[5] = primary 100% ethanol 2.1-2.9 ml, secondary 5% chloroxylenol in 40% isopropanol/60% water, 1.0 ml, small toads (45.0-89.9 gm)
[6] = primary 100% ethanol 2.1-2.9 ml, secondary 30% chloroxylenol in ethanol, 0.2 ml, small toads (45.0-89.9 gm)
[7] = primary 100% ethanol 2.1-2.9 ml, secondary 30% chloroxylenol in ethanol, 0.5 ml, small toads (45.0-89.9 gm)
[8] = primary 100% ethanol 2.1 ml, secondary 15% chloroxylenol in 60% isopropanol/40% water, 1.0 ml, small toads (45.0-89.9 gm)
[9] = large toads (≧140 gm), carrier 40% ethanol with 60% isopropanol, chloroxylenol content 3.75%
[10] = large toads (≧140 gm), carrier 40% ethanol with 60% isopropanol, chloroxylenol content 5.00%
[11] = large toads (≧140 gm), carrier 60% ethanol with 40% isopropanol, chloroxylenol content 5.00%
[12] = large toads (≧140 gm), carrier 70% ethanol with 30% isopropanol, chloroxylenol content 2.00%
[13] = large toads (≧140 gm), carrier 70% ethanol with 30% isopropanol, chloroxylenol content 2.50%
[14] = large toads (≧140 gm), carrier 80% ethanol with 20% isopropanol, chloroxylenol content 2.50%
[15] = large toads (≧140 gm), carrier 80% ethanol with 20% isopropanol, chloroxylenol content 3.75%
[16] = large toads (≧140 gm), carrier 80% ethanol with 20% isopropanol, chloroxylenol content 5.00%
[17] = medium size toads (90.0-139.9 gm), carrier 40% ethanol with 60% isopropanol, chloroxylenol content 3.75%
[18] = medium size toads (90.0-139.9 gm), carrier 40% ethanol with 60% isopropanol, chloroxylenol content 5.00%
[19] = medium size toads (90.0-139.9 gm), carrier 60% ethanol with 40% isopropanol, chloroxylenol content 5.00%
[20] = medium size toads (90.0-139.9 gm), carrier 70% ethanol with 30% isopropanol, chloroxylenol content 2.00%
[21] = medium size toads (90.0-139.9 gm), carrier 70% ethanol with 30% isopropanol, chloroxylenol content 2.50%
[22] = medium size toads (90.0-139.9 gm), carrier 80% ethanol with 20% isopropanol, chloroxylenol content 2.50%
[23] = medium size toads (90.0-139.9 gm), carrier 80% ethanol with 20% isopropanol, chloroxylenol content 3.75%
[24] = medium size toads (90.0-139.9 gm), carrier 80% ethanol with 20% isopropanol, chloroxylenol content 5.00%
[25] = pooled chloroxylenol concentrations and ethanol/propanol carriers (FIGS. 1 and 2)
[26] = small toads (45.0-89.9 gm), carrier 60% ethanol with 40% isopropanol, chloroxylenol content 2.50%
[27] = small toads (45.0-89.9 gm), carrier 60% ethanol with 40% isopropanol, chloroxylenol content 3.75%
[28] = small toads (45.0-89.9 gm), carrier 60% ethanol with 40% isopropanol, chloroxylenol content 5.00%
[29] = small toads (45.0-89.9 gm), carrier 70% ethanol in water, chloroxylenol content 2.50%
[30] = small toads (45.0-89.9 gm), carrier 70% ethanol with 30% isopropanol, chloroxylenol content 2.50%
[31] = small toads (45.0-89.9 gm), carrier 70% ethanol with 30% isopropanol, chloroxylenol content 3.75%
[32] = small toads (45.0-89.9 gm), carrier 70% ethanol with 30% isopropanol, chloroxylenol content 5.00%
[33] = small toads (45.0-89.9 gm), carrier 70% ethanol with 30% methanol, chloroxylenol content 2.50%
[34] = small toads (45.0-89.9 gm), carrier 80% ethanol with 20% isopropanol, chloroxylenol content 2.50%
[35] = small toads (45.0-89.9 gm), carrier 80% ethanol with 20% isopropanol, chloroxylenol content 3.75%
[36] = small toads (45.0-89.9 gm), carrier 80% ethanol with 20% isopropanol, chloroxylenol content 5.00%
[37] = small toads (45.0-89.9 gm), carrier 98% ethanol with 2% citral, chloroxylenol content 2.50%
[38] = small toads (45.0-89.9 gm), carrier 100% ethanol, chloroxylenol content 0.50%, spray 3.0-3.3 gm
[39] = small toads (45.0-89.9 gm), carrier 100% ethanol, chloroxylenol content 2.50%
[40] = small toads (45.0-89.9 gm), carrier 100% ethanol, chloroxylenol content 5.00%

Cc1cc(O)cc(C)c1Cl [chloroxylenol, 4-chloro 3,5-dimethyl phenol]
ethanol-anaesthetised toads exterminated (cane toads [1]; chloroxylenol in carriers (ethanol alone or dilutions of propanol), all toads treated (12)): 12
mean time to death (cane toads [1]; [4]): 28 min
number died/number tested (cane toads [1]; [4]): 1/1
mean time to death (cane toads [1]; [5]): 30 min
number died/number tested (cane toads [1]; [5]): 5/5
mean time to death (cane toads [1]; [6]): 71 min
number died/number tested (cane toads [1]; [6]): 2/2
mean time to death (cane toads [1]; [7]): 64 min
number died/number tested (cane toads [1]; [7]): 2/2
mean time to death (cane toads [1]; [8]): 24 min
number died/number tested (cane toads [1]; [8]): 2/2
onset of death (cane toads [1]; two-step tests of Example 1): 16 to 102 min
predicted time to kill toads of up to 200 gm weight (cane toads [2]; 2.5% chloroxylenol, from fitted line of FIG. 2): less than 60 minutes
large toads killed/treated (cane toads [2]; compositions with 2.5% or more chloroxylenol): 31/32
medium-sized toads killed (cane toads [2]; compositions with 2.5% or more chloroxylenol, all toads treated (33)): 33
mean time to death (cane toads [2]; [9]): 52 min
number died/number tested (cane toads [2]; [9]): 5/5
mean time to death (cane toads [2]; [10]): 47 min
number died/number tested (cane toads [2]; [10]): 4/4
mean time to death (cane toads [2]; [11]): 39 min
number died/number tested (cane toads [2]; [11]): 7/7
number died/number tested (cane toads [2]; large toads (≧140 gm), carrier 70% ethanol with 30% isopropanol, chloroxylenol content 1.25%): 0/7;
mean time to death (cane toads [2]; [12]): 50 min
number died/number tested (cane toads [2]; [12]): 7/7
mean time to death (cane toads [2]; [13]): 60 min
number died/number tested (cane toads [2]; [13]): 7/7
mean time to death (cane toads [2]; [14]): 91 min
number died/number tested (cane toads [2]; [14]): 1/1
mean time to death (cane toads [2]; [15]): 34 min
number died/number tested (cane toads [2]; [15]): 3/4
mean time to death (cane toads [2]; [16]): 53 min
number died/number tested (cane toads [2]; [16]): 4/4
mean time to death (cane toads [2]; [17]): 48 min
number died/number tested (cane toads [2]; [17]): 4/4
mean time to death (cane toads [2]; [18]): 46 min
number died/number tested (cane toads [2]; [18]): 4/4
mean time to death (cane toads [2]; [19]): 28 min
number died/number tested (cane toads [2]; [19]): 7/7
mean time to death (cane toads [2]; [20]): 65 min
number died/number tested (cane toads [2]; [20]): 5/5
mean time to death (cane toads [2]; [21]): 39 min
number died/number tested (cane toads [2]; [21]): 5/5
mean time to death (cane toads [2]; [22]): 37 min
number died/number tested (cane toads [2]; [22]): 5/5
mean time to death (cane toads [2]; [23]): 31 min
number died/number tested (cane toads [2]; [23]): 4/4
mean time to death (cane toads [2]; [24]): 52 min
number died/number tested (cane toads [2]; [24]): 4/4
tests in which a lethal outcome was achieved (cane toads [2]; of 93 in total, three chloroxylenol concentrations in four propanol-ethanol carriers): 92
large toads died within 40 minutes (number) (cane toads [2]; [25]): 12/32
large toads died within 40 minutes (percent) (cane toads [2]; [25]): 37%
large toads died within 60 minutes (number) (cane toads [2]; [25]): 23/32
large toads died within 60 minutes (percent) (cane toads [2]; [25]): 72%
medium toads died within 40 minutes (number) (cane toads [2]; [25]): 25/33
medium toads died within 40 minutes (percent) (cane toads [2]; [25]): 75%
medium toads died within 60 minutes (number) (cane toads [2]; [25]): 30/33
medium toads died within 60 minutes (percent) (cane toads [2]; [25]): 91%
small toads killed in <30 minutes (number) (cane toads [2]; [25]): 22/28
small toads killed in <30 minutes (percent) (cane toads [2]; [25]): 78%
time to death, all medium sized toads (cane toads [2]; [25]): ≤ 102 min
time to death, large toads, all but one (cane toads [2]; [25]): ≤ 120 min
time to death, all small toads (cane toads [2]; pooled: 2.5%, 3.75%, 5% chloroxylenol in four ethanol/propanol carriers (FIGS. 1 and 2)): ≤ 40 min
mean time to death (cane toads [2]; [26]): 27 min
number died/number tested (cane toads [2]; [26]): 3/3
mean time to death (cane toads [2]; [27]): 19 min
number died/number tested (cane toads [2]; [27]): 3/3
mean time to death (cane toads [2]; [28]): 21 min
number died/number tested (cane toads [2]; [28]): 5/5
mean time to death (cane toads [2]; [29]): 46 min
number died/number tested (cane toads [2]; [29]): 3/3
mean time to death (cane toads [2]; [30]): 26 min
number died/number tested (cane toads [2]; [30]): 3/3
mean time to death (cane toads [2]; [31]): 26 min
number died/number tested (cane toads [2]; [31]): 3/3
mean time to death (cane toads [2]; [32]): 22 min
number died/number tested (cane toads [2]; [32]): 3/3
mean time to death (cane toads [2]; [33]): 38 min
number died/number tested (cane toads [2]; [33]): 3/3
mean time to death (cane toads [2]; [34]): 25 min
number died/number tested (cane toads [2]; [34]): 2/2
mean time to death (cane toads [2]; [35]): 22 min
number died/number tested (cane toads [2]; [35]): 4/4
mean time to death (cane toads [2]; [36]): 16 min
number died/number tested (cane toads [2]; [36]): 2/2
mean time to death (cane toads [2]; [37]): 25 min
number died/number tested (cane toads [2]; [37]): all three toads tested were killed and 3/3
mean time to death (cane toads [2]; [38]): 62 min
number died/number tested (cane toads [2]; [38]): one third and 1/3
mean time to death (cane toads [2]; [39]): 28 min
number died/number tested (cane toads [2]; [39]): 3/3
mean time to death (cane toads [2]; [40]): 22 min
number died/number tested (cane toads [2]; [40]): 3/3
mean times to death (cane toads [2]; small toads, ethanol as sole carrier or mixtures of ethanol and propanol, at least 2.5% chloroxylenol): less than 30 minutes

CCO [ethanol]
lag period before onset of anaesthesia (toad stupefied, unable to right itself) (cane toads [1]; mist of ethanol on dorsal surface, 2-3 gm): 10 to 15 min
anaesthetic effect of topical application (cane toads [3]; toads of all sizes): rapid- and long-acting anaesthetic
lethality of ethanol alone (cane toads [3]; very small toads = less than about 45 gm): death only in some (but not all) very small toads
